Source: patent US6780853B1, “Neuroactive steroids of the androstane and pregnane series” (priority 1995, dated 2004)
Counter-ions that a name gives are not always drawn.

Columns and labels:
[1] = target: GABA receptor complex (GRC); assay: [35S]TBPS binding in rat cerebral cortex P2 homogenate; details: for IC50: concentration to inhibit 50% of control [35S]TBPS binding, 2 nM [35S]TBPS; for IMAX (maximum inhibition): maximum inhibition of [35S]TBPS binding
From the text: To those skilled in the art, it is known that the modulation of [^35S]t-butylbicyclophosphorothionate ([^35S]TBPS) binding is a measure of the potency and efficacy of drugs acting at the GRC, which drugs may be of potential therapeutic value in the treatment of stress, anxiety, and seizure disorders (Squires, R. F., et al., Mol, Pharmacol., 23:326 (1983); Lawrence, L. J., et al., Biochem. Biophys. Res. Comm., 123:1130-1137 (1984); Wood, et al., Pharmacol, Exp. Ther., 231:572-576 (1984)). Several experiments were performed previously to determine the nature of the modulation of [^35S]TBPS as affected by neuroactive steroids. […] Furthermore, these compounds have high potency and efficacy at the GRC, with stringent structural requirements for such activity.
The procedures for performing this assay are fully discussed in: (1) Gee, K. W. et al., European Journal of Pharmacology, 136:419-423 (1987)); and (2) Gee, et al., Molecular Pharmacology 30:218 (1986). These procedures were performed as follows:
Brains from male Sprague-Dawley rats were removed immediately following sacrifice and the cerebral cortices dissected over ice. A P2 homogenate was prepared as previously described (Gee, et al., Molecular Pharmacology 30:218 (1986)). Briefly, the cortices were gently homogenized in 032 M sucrose followed by centrifugation at 1000×g for 10 minutes. The supernatant was collected and centrifuged at 9000×g for 20 minutes. The resultant P2 pellet was suspended as a 10% (original wet weight/volume) suspension in 50 mM Na/K phosphate buffer (pH 7.4) 200 mM NaCl to form the homogenate.
One hundred microliter […] aliquots of the P2 homogenate (0.5 milligrams (mg) protein) were incubated with 2 nanomolar (nM) [^35S]TBPS (70-110 curies/millimole; New England Nuclear, Boston, Mass.) in the presence or absence of the naturally occurring steroids or their synthetic derivatives to be tested. The tested compounds were dissolved in dimethylsulfoxide (Baker Chem. Co., Phillipsburg, N.J.) and added to the incubation mixture in 5 μL aliquots. The incubation mixture was brought to a final volume of 1 mL with buffer. Non-specific binding was defined as binding in the presence of […]. The effect and specificity of GABA (Sigma Chem. Co., St. Louis, Mo.) was evaluated by performing all assays in the presence of GABA plus (+)bicuculline (Sigma Chem. Co.). Incubations maintained at 25° C. for 90 minutes (steady state conditions) were terminated by rapid filtration through glass fiber filters (No. 32, Schleicher and Schuell, Keene, N.H.). Filter-bound radioactivity was quantitated by liquid scintillation spectrophotometry. Kinetic data and compound/[^35S]TBPS dose-response curves were analyzed by nonlinear regression using a computerized iterative procedure to obtain rate constants and IC50 (concentration of compound at which half-maximal inhibition of basal [^35S]TBPS binding occurs) values.
Various compounds were screened to determine their potential as modulators of [^35S]TBPS binding in vitro. These assays were performed in accordance with the above discussed procedures. Based on these assays, we have established the structure-activity requirements for their specific interaction at the GRC and their rank order potency and efficacy. Experimental data obtained in this assay for a number of 3α-hydroxypregnan-20-one derivatives is discussed in Gee, K. W. et al., European Journal of Pharmacology, 136:419-423 (1987) and in U.S. Pat. No. 5,232,917. Table 1 provides IC50 and maximum inhibition (IMAX) measurements for numerous compounds, including examples of compounds disclosed and claimed herein. IC50 is defined as concentration of compounds to inhibit 50% of control [^35S]TBPS binding. It is an indication of a compound's in vitro potency. Maximum inhibition is an indication of a compound's in vitro efficacy.

[2] = test system: time spent on the open-arms; assay: Elevated plus-maze test; type: in vivo, N.I.H. Swiss-Webster mice
From the text: The theoretical basis for the elevated plus-maze test is similar to that of the fight/dark transition test. As it was described previously by Pellow et al. J. Neurosci. Meth. 14:149-167 (1985)), the elevated plus-maze apparatus is designed to utilize the mice's natural aversion to open spaces. The apparatus consists of two open-arms and two enclosed-arms. The elevated plus-maze test allows for two measures of anxiety, the number of entries into the open-arms and the time spent on the open-arms, both expressed as a percentage of the total number of entries and time spent in/on both the open-arms and enclosed-arms.
Male N.I.H Swiss-Webster mice (Harlan, Indianapolis, Ind.) weighing 15-20 g were housed four per cage in polyethylene cages with sawdust bedding. The colony room was environmentally controlled (22° C.) with a 12 hr light/dark cycle (0600-1800 hr). Food and water were available ad libitum, except during testing. The experiments were run from 0700-1500 hr and groups were counterbalanced for time of day effects. Mice were only administered drug or vehicle once.
The method used was previously described (Lister, Psychopharmacol. 92:180-185 (1987)). The apparatus included two open arms perpendicular to two enclosed arms elevated 50 cm from the floor. Each arm was 50 cm long and the walls of the enclosed arms were 40 cm tall. The maze was made completely of black plexiglass. Incandescent 200 W light bulbs were above each of the open arms to produce a strong contrast between the open arms and the enclosed arms.
[…] Swiss-Webster mice were placed in the center of the plus-maze facing an open arm. During the 5 min test period, the number of entries onto the open arms and the enclosed arms, and the time spent in the open arms and enclosed arms were measured. All four paws had to be within an arm for the dependent variable to be measured. Therefore, the time spent in the center of the maze is not counted, so the total time spent in the open arms and the enclosed arms may not equal 5 min.

[3] = test system: metrazol induced convulsions; assay: Antimetrazol activity in mice; type: in vivo; details: IP
Experimental: Experiments were also performed to determine the physiological relevance of neuroactive steroid and GABA receptor interactions by assessing the ability of compounds of the present invention to prevent metrazol induced convulsions in mice. Mice were injected with various doses of the test compounds of the invention, 10 minutes prior to the injection of metrazol. The time to onset of myoclonus (presence of forelimb clonic activity) induced by metrazol was determined by observing each mouse for a period of 30 minutes. In control mice, metrazol (85 mg/kg) will induce convulsion in 95% of the animals.
The anticonvulsant tests are similar to that described above.

[4] = 50% hpbcd, 10 mg/kg, 10 min before metrazol 85 mg/kg

Compound	IC50 [1] [nM]	IMAX (maximum inhibition) [1] [%]	Plus-Maze (% Control), time spent on the open-arms ([2]; IP, 50% hpbcd, 10 mg/kg) [% Control]	% Protected [3, 4] [%]	melting point [°C]	other results
C[C@]12CC[C@@H](O)C[C@H]1CC[C@@H]1[C@@H]2CC[C@]2(C)[C@@H](C(=O)C[S+]([O-])c3ccncc3)CC[C@@H]12 (stereo partly drawn) [3α-Hydroxy-21-(pyrid-4-ylsulfinyl)-5β-pregnan-20-one]	235	73	171	25		
COCC1(O)CCC2(C)C(CCC3C2CCC2(C)C(C(=O)CSc4ccc(N)cc4)CCC32)C1 (stereo not drawn) [21-(4′-aminophenylthio)-3α-hydroxy-3β-methoxymethyl-5α-pregnan-20-one]	127	89			150 to 156	
CO[C@H]1CC[C@H]2[C@@H]3CC[C@@H]4C[C@H](OC(=O)C(C)C)CC[C@]4(C)[C@H]3CC[C@]12C					82 to 87	
CC(=O)c1ccc(C#CCO[C@H]2CC[C@H]3[C@@H]4CC[C@H]5C[C@](C)(O)CC[C@]5(C)[C@H]4CC[C@]23C)cc1 [17β-[3-(4-Acetylphenyl)-2-propynyloxy]-3α-hydroxy-3β-methyl-5α-androstane]	316	95			52 to 55	
C[C@]12CC[C@@H](O)C[C@H]1CC[C@@H]1[C@@H]2CC[C@]2(C)[C@@H](C(=O)CSc3ccccn3)CC[C@@H]12 [3α-Hydroxy-21-(pyrid-2-ylthio)-5β-pregnan-20-one]	90	66				Plus-Maze (% Control), time spent on the open-arms ([2]; IP, 50% hpbcd, 20 mg/kg): 187 % Control; % Protected ([3]; 50% hpbcd, 20 mg/kg): 12.5%
C#CC1(O)CCC2(C)C(CCC3C2CCC2(C)C(C(=O)CSCCS(=O)(=O)O)CCC32)C1 (stereo not drawn) [3β-ethynyl-3α-hydroxy-21-thioethanesulfonate-5β-pregnan-20-one sodium salt]	607	93	127	0		
C#C[C@@]1(O)CC[C@@]2(C)[C@@H](CC[C@@H]3[C@@H]2CC[C@]2(C)[C@@H](OC)CC[C@@H]32)C1 [3β-Ethynyl-3α-hydroxy-17β-methoxy-5α-androstane]	122	106	129			
COC1CCC2C3CCC4CC(O)(C#CCCOC(=O)CCC(=O)O)CCC4(C)C3CCC12C (stereo not drawn) [3β-(4′-hydroxy-1′-butynyl)-3α-hydroxy-17β-methoxy-5β-androstane 4′-hemisuccinate sodium salt]	108	100				Plus-Maze (% Control), time spent on the open-arms ([2]; PO, water, 10 mg/kg): 309 % Control; % Protected ([3]; water, 10 mg/kg): 75%
C[C@@]1(O)CC[C@@]2(C)[C@@H](CC[C@@H]3[C@@H]2CC[C@]2(C)[C@@H](C(=O)COc4ccc([N+](=O)[O-])cc4)CC[C@@H]32)C1					169 to 172	
C[C@]12CC[C@@H](O)C[C@H]1CC[C@@H]1[C@@H]2CC[C@]2(C)[C@@H](C(=O)CSc3ccncc3)CC[C@@H]12 [3α-hydroxy-21-(pyrid-4-ylthio)-5β-pregnan-20-one]	59	74	151	75		
CC12CCC(O)CC1CCC1C2CCC2(C)C(C(=O)CSc3ncc[nH]3)CCC12 (stereo not drawn) [3α-Hydroxy-21-(imidazo-2-ylthio)-5β-pregnan-20-one]	184	80	166	6.25		
C#CCC1(O)CCC2(C)C(CCC3C2CCC2(C)C(OC)CCC32)C1 (stereo not drawn) [3α-Hydroxy-17β-methoxy-3β-(2-propynyl)-5α-androstane]	387	101		12.5		
COC1CCC2C3CCC4CC(O)(C#CCCO)CCC4(C)C3CCC12C (stereo not drawn) [3β-(4′-Hydroxybutyn-1′-yl)-3α-hydroxy-17β-methoxy-5α-androst] [3β-(4′-Hydroxy-1-′-butynyl)-3α-hydroxy-17β-methoxy-5α-androstane]	47	104	158			
C[C@]12CC[C@@H](O)C[C@@H]1CC[C@@H]1[C@@H]2CC[C@]2(C)[C@@H](OCCO)CC[C@@H]12 [17β-(2-Hydroxyethoxy)-3α-hydroxy-5α-androstane]	534	99			181 to 183	
CC12CCC(O)(C#CCCO)CC1CCC1C2CCC2(C)C(C(=O)CSc3ccncc3)CCC12 (stereo not drawn) [3α-Hydroxy-3β-(4-hydroxybutynyl)-21-(pyrid-4-ylthio)-5β-pregnan-20-one]	15	100		50		
C=C[C@@]1(O)CC[C@@]2(C)[C@@H](CC[C@@H]3[C@@H]2CC[C@]2(C)[C@@H](OC)CC[C@@H]32)C1 [3β-Ethenyl-3α-hydroxy-17β-methoxy-5α-androstane]	133	104	127			
COC1CCC2C3CCC4CC(O)(C#CCCO)CCC4(C)C3CCC12C (stereo not drawn) [3β-(4′-Hydroxybutyn-1′yl)-3α-hydroxy-17β-methoxy-5β-androsta] [3β-(4′-Hydroxy-1-′-butynyl)-3α-hydroxy-17β-methoxy-5β-androstane]	26	105				% Protected ([3]; 50% hpbcd, 10 mg/kg, 10 min before metrazol 85 mg/kg, listed as 3α-Hydroxy-3β-(4′-hydroxybutyn-1-yl)-17β-methoxy-5β-androstane): 75%
C[C@]12CC[C@@H](O)C[C@H]1CC[C@@H]1[C@@H]2CC[C@]2(C)[C@@H](C(=O)COc3cccnc3)CC[C@@H]12 [3α-hydroxy-21-(pyrid-3-yl)oxy-5β-pregnan-20-one]	76	76			63 to 66	
